Test results reported in PubChem BioAssay AID1963848 (Molecular Pharmacology Branch, DTP, NCI, 2024).
pIC50: −log10 of the molar value. “And” between values parts separate entries of the source, which are not always exact repeats. Identical values can stand only once.

System: 379773-124-R-J2-PDC spheroid viability
Test: Anticancer human tumor 379773-124-R-J2-PDC patient-derived endometrial carcinoma cell line growth inhibition [POLQ]
Conditions: spheroids with HUVEC and MSC; for viability, T/C: stronger effect = lower value; active = viability on the fitted dose curve at most 10% of control; inactive = the rest
Method: Multicellular complex tumor spheroid response to Polymerase (POL) inhibitors (novobiocin, ART-558, RP6685) in combination with a variety of drugs and investigational agents in selected tumor cell lines
The POL inhibitors (novobiocin, ART-558, and RP6685) were evaluated both individually and in combination with standard of care and investigational anticancer small molecules within a complex spheroid model of solid tumors. . Complex spheroids include a stromal component modeled by human endothelial cells (HUVEC) and fibroblasts modeled by human mesenchymal stem cells (MSCs). The concentration ranges selected for each drug and investigational agent were based upon clinically achievable concentrations if the clinical Cmax of the agent was known.
Compounds. The drugs and investigational agents: novobiocin (NSC847541), ART-558 (NSC835418), RP-6685 (NSC848927), peposertib (NSC802822), ceralasertib (NSC780249), elimusertib (NSC800525), camonsertib (NSC841442), AZD-1390 (NSC803789), olaparib (NSC753686), talazoparib (NSC767125), rucaparib (NSC756644), sotorasib (NSC818433), MRTX-1133 (NSC836407), SN-38 (NSC673596), topotecan (NSC609699), epotoside (NSC141540), doxorubicin (NSC123127), gemcitabine (NSC613327), 5-fluorouracil (NSC19893), paclitaxel (NSC125973), vemurafenib (NSC761431), MSA-2 (NSC828583), SN-011 (NSC837082), adavosertib (NSC754352), prexasertib (NSC758257), carboplatin (NSC241240) and oxaliplatin (NSC266046), were obtained from the National Cancer Institute (NCI) Developmental Therapeutics Program Chemical Repository (21). The FDA-approved anticancer drug set is available from the Developmental Therapeutics Program at https://dtp.cancer.gov/organization/dscb/obtaining/. […] The stock solutions were prepared in dimethyl sulfoxide (DMSO, Sigma-Aldrich, St. Louis, MO, cat. D2650), except for the platinum compounds which were prepared in saline (Quality Biological, Gaithersburg, MD, cat. 114-055-101), at 800-fold the tested concentration and stored at -70 degrees C prior to their use. All drugs and investigational agents were tested over a range starting from a high concentration at or near the clinical Cmax and decreasing in half-log increments. If the clinical Cmax for an agent had not been determined, the highest concentration tested was 10 microM, except for SN-38, which was tested at a high concentration of 1 microM.
Cell Culture. All cells were maintained in an incubator at 37 degrees C and 5% CO2 with 95% humidity. The PDC lines were cultured according to standard operating procedures established by the NCI PDMR (https://pdmr.cancer.gov). Table 3 of the manuscript, lists the cell lines along with the number of the three cell types plated to form the mct-spheroids and media for tumor cell growth. After thawing, all PDC lines, except 997537-175-T-J1-PDC and 415267-285-R-J2-PDC, were cultured in Matrigel-coated flasks prepared with a working solution of 1X Ham's F-12 nutrient mix, without supplementation (Thermo Fisher Scientific, cat. 11765054), 100 U/mL penicillin-streptomycin (Thermo Fisher Scientific, cat. 15140122), and 2.5% Matrigel (Corning Inc., Corning, NY, cat. 354248) for the first three passages. The two PDC lines 997537-175-T-J1-PDC and 415267-285-R-J2-PDC were cultured on uncoated flasks. The 857933-349-R-J2-PDC line was cultured in 6C/Colon 1B media containing advanced DMEM/F-12 (Thermo Fisher Scientific, cat. 12634028), 10 mM HEPES (Thermo Fisher Scientific, cat. 15630080), 1X GlutaMAX supplement (Thermo Fisher Scientific, cat. 35050061), 0.1 mg/mL primocin (InvivoGen, San Diego, CA, cat. ant-pm-2), 10% defined fetal bovine serum, heat inactivated (HyClone Laboratories Inc., Logan, UT, cat. SH30070.03HI), 50% L-WRN conditioned media (ATCC, cat. CRL-3276), 1.25 mM N-Acetyl-L-cysteine (Sigma-Aldrich, cat. A9165), 10 mM nicotinamide (Sigma-Aldrich, cat. N0636), 1X B-27 supplement (Thermo Fisher Scientific, cat. 17504044), 1X N-2 supplement (Thermo Fisher Scientific, cat. […]

[1] = curve of first compound, second compound 0.0316 µM
[2] = curve of first compound, second compound 0.1 µM
[3] = curve of first compound, second compound 0.316 µM
[4] = curve of first compound, second compound 1 µM
[5] = curve of first compound, second compound 3.16 µM
[6] = curve of first compound, second compound 10 µM
[7] = second compound 0.0316 µM, first compound 0.0316 µM
[8] = second compound 0.0316 µM, first compound 0.1 µM
[9] = second compound 0.0316 µM, first compound 0.316 µM
[10] = second compound 0.0316 µM, first compound 1 µM
[11] = second compound 0.0316 µM, first compound 3.16 µM
[12] = second compound 0.0316 µM, first compound 10 µM
[13] = second compound 0.1 µM, first compound 0.0316 µM
[14] = second compound 0.1 µM, first compound 0.1 µM
[15] = second compound 0.1 µM, first compound 0.316 µM
[16] = second compound 0.1 µM, first compound 1 µM
[17] = second compound 0.1 µM, first compound 3.16 µM
[18] = second compound 0.1 µM, first compound 10 µM
[19] = second compound 0.316 µM, first compound 0.0316 µM
[20] = second compound 0.316 µM, first compound 0.1 µM
[21] = second compound 0.316 µM, first compound 0.316 µM
[22] = second compound 0.316 µM, first compound 1 µM
[23] = second compound 0.316 µM, first compound 3.16 µM
[24] = second compound 0.316 µM, first compound 10 µM
[25] = second compound 1 µM, first compound 0.0316 µM
[26] = second compound 1 µM, first compound 0.1 µM
[27] = second compound 1 µM, first compound 0.316 µM
[28] = second compound 1 µM, first compound 1 µM
[29] = second compound 1 µM, first compound 3.16 µM
[30] = second compound 1 µM, first compound 10 µM
[31] = second compound 3.16 µM, first compound 0.0316 µM
[32] = second compound 3.16 µM, first compound 0.1 µM
[33] = second compound 3.16 µM, first compound 0.316 µM
[34] = second compound 3.16 µM, first compound 1 µM
[35] = second compound 3.16 µM, first compound 3.16 µM
[36] = second compound 3.16 µM, first compound 10 µM
[37] = second compound 10 µM, first compound 0.0316 µM
[38] = second compound 10 µM, first compound 0.1 µM
[39] = second compound 10 µM, first compound 0.316 µM
[40] = second compound 10 µM, first compound 1 µM
[41] = second compound 10 µM, first compound 3.16 µM
[42] = second compound 10 µM, first compound 10 µM
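Note: spheroids exposed to drugs for seven days before readout.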
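Throughout, for viability, T/C: percent viability relative to DMSO vehicle control taken as 100%.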

O=c1[nH]cc(F)c(=O)[nH]1 + COC1C(OC(N)=O)C(O)C(Oc2ccc3c(O)c(NC(=O)c4ccc(O)c(CC=C(C)C)c4)c(=O)oc3c2C)OC1(C)C
inactive: viability, T/C [7] 85.1% | viability, T/C [8] 83.2% | viability, T/C [9] 85.4% | viability, T/C [10] 80.3% | viability, T/C [11] 69.1% | viability, T/C [12] 51.8% | viability, T/C [13] 90.7% | viability, T/C [14] 88.8% | viability, T/C [15] 81.8% | viability, T/C [16] 86.2% | viability, T/C [17] 68.6% | viability, T/C [18] 61% | viability, T/C [19] 92.7% | viability, T/C [20] 90.4% | viability, T/C [21] 80.9% | viability, T/C [22] 78% | viability, T/C [23] 75.8% | viability, T/C [24] 56.6% | viability, T/C [25] 82.6% | viability, T/C [26] 77.2% | viability, T/C [27] 88.4% | viability, T/C [28] 74.6% | viability, T/C [29] 71.1% | viability, T/C [30] 60.3% | viability, T/C [31] 78.2% | viability, T/C [32] 82.6% | viability, T/C [33] 90.4% | viability, T/C [34] 70.8% | viability, T/C [35] 76.6% | viability, T/C [36] 57.5% | viability, T/C [37] 75.6% | viability, T/C [38] 78.5% | viability, T/C [39] 76.1% | viability, T/C [40] 71% | viability, T/C [41] 70.6% | viability, T/C [42] 55.3%
< 5.00: pIC50 [1] | pIC50 [2] | pIC50 [3] | pIC50 [4] | pIC50 [5] | pIC50 [6]

Nc1ccc(C#CCN(C(=O)Cc2ncc(C(F)(F)F)cc2C(F)(F)F)c2ccc(F)cc2)nn1
< 5.00: pIC50 (compound alone, run of 11/06/2023)
inactive: viability, T/C (compound 0.0316 µM) 91.8% [middle of 13 runs] | viability, T/C (compound 0.1 µM) 92.8% [middle of 13 runs] | viability, T/C (compound 0.316 µM) 93.2% [middle of 13 runs] | viability, T/C (compound 1 µM) 91.9% [middle of 13 runs] | viability, T/C (compound 3.16 µM) 94.9% [middle of 12 runs] | viability, T/C (compound 10 µM) 91.4% [middle of 13 runs]

C#Cc1c(F)ccc2cc(O)cc(-c3ncc4c(N5CC6CCC(C5)N6)nc(OCC56CCCN5CC(F)C6)nc4c3F)c12 (stereo not drawn) + Cc1cccc(N(C)C(=O)C2C(O)CCN2c2nc(C)cc(C(F)(F)F)c2C#N)c1
inactive: viability, T/C [7] 81.5% | viability, T/C [8] 89.3% | viability, T/C [9] 84% | viability, T/C [10] 74.6% | viability, T/C [11] 84% | viability, T/C [12] 82% | viability, T/C [13] 93.8% | viability, T/C [14] 68.7% | viability, T/C [15] 85.8% | viability, T/C [16] 75.2% | viability, T/C [17] 84.8% | viability, T/C [18] 93% | viability, T/C [19] 90.8% | viability, T/C [20] 93.4% | viability, T/C [21] 77.9% | viability, T/C [22] 86.5% | viability, T/C [23] 95.5% | viability, T/C [24] 88.4% | viability, T/C [25] 80% | viability, T/C [26] 78.9% | viability, T/C [27] 73.2% | viability, T/C [28] 82.2% | viability, T/C [29] 95.9% | viability, T/C [30] 90.6% | viability, T/C [31] 78.9% | viability, T/C [32] 87.3% | viability, T/C [33] 85.2% | viability, T/C [34] 80% | viability, T/C [35] 86.2% | viability, T/C [36] 79.4% | viability, T/C [37] 84.9% | viability, T/C [38] 79.7% | viability, T/C [39] 74.2% | viability, T/C [40] 78.4% | viability, T/C [41] 88.9% | viability, T/C [42] 93.8%
< 5.00: pIC50 [1] | pIC50 [2] | pIC50 [3] | pIC50 [4] | pIC50 [5] | pIC50 [6]

C=CC(=O)N1CCN(c2nc(=O)n(-c3c(C)ccnc3C(C)C)c3nc(-c4c(O)cccc4F)c(F)cc23)C(C)C1 (stereo not drawn)
< 5.00: pIC50 (curve of compound)
inactive: viability, T/C (compound 0.0316 µM) 97.8% and 95.1% and 86.4% | viability, T/C (compound 0.1 µM) 86.7% and 106% and 91.7% | viability, T/C (compound 0.316 µM) 70% and 103% and 89.9% | viability, T/C (compound 1 µM) 86.1% and 93.1% and 87.7% | viability, T/C (compound 3.16 µM) 88.5% and 95.5% and 97.6% | viability, T/C (compound 10 µM) 78.4% and 95.8% and 85.6%
